In PubChem BioAssay (NCI) one finds TGI data, which are given here for 15 molecules.

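In this assay, cells in 96-well plates receive the compound at five concentrations for 48 hours. Endpoints are linearly interpolated between the surrounding concentrations. TGI is the concentration that stops growth completely.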 A value given as a limit tells only on which side of the number the result lay.

Among the test systems are SW-620 colon; OVCAR-5 ovarian; U251 CNS; COLO 205 colon; SK-MEL-2 melanoma; MDA-N; HCT-15 colon; UO-31 renal; RPMI-8226 leukemia; HCC-2998 colon.
Common to all, as to test: NCI tumour cell line growth inhibition, 48 h

Consider `Cc1ccc(S(=O)(=O)NC(=O)Nc2ccc(C(=O)O)cc2)cc1`, for which the TGI in the assay on SW-620 colon, in the assay on OVCAR-5 ovarian, in the assay on U251 CNS, in the assay on COLO 205 colon, in the assay with SK-MEL-2 melanoma and with MDA-N was more than 100 µM throughout. In addition, the TGI in the assay on HCT-15 colon, in the assay with UO-31 renal and in the assay on RPMI-8226 leukemia was more than 100 µM each time.

Regarding `NC(=O)CSc1nc2ccccc2c(=O)n1N`, the TGI in the assay on HCC-2998 colon, with SW-620 colon, in the assay on OVCAR-5 ovarian, with U251 CNS, in the assay on COLO 205 colon and in the assay on SK-MEL-2 melanoma was more than 100 µM each time. Besides, the TGI with MDA-N, in the assay on HCT-15 colon, in the assay with UO-31 renal and with RPMI-8226 leukemia was more than 100 µM in each case.

Regarding `Cc1nnc(SCc2nc(C#N)c(C#N)nc2CSc2nnc(C)s2)s1`, the TGI in the assay on HCC-2998 colon is 30.4 µM; in the assay on SW-620 colon it was 15.6 µM; with OVCAR-5 ovarian, 34.5 µM; with U251 CNS, 37.5 µM; in the assay with COLO 205 colon, 25.5 µM; in the assay with SK-MEL-2 melanoma, 63.4 µM. Further, the TGI in the assay on MDA-N was determined as 49.9 µM; in the assay with HCT-15 colon, 26.4 µM; in the assay on UO-31 renal, 24.1 µM; with RPMI-8226 leukemia, 18 µM.

For `CC[C@]1(c2ccc3c(c2)OCO3)C=[N+]([O-])O[C@H](OC2CCCC2(c2ccccc2)c2ccccc2)[C@@H]1OC(C)=O` (stereo not given in full), the TGI in the assay on HCC-2998 colon was 4.05 µM; with SW-620 colon, more than 100 µM; in the assay with OVCAR-5 ovarian it was more than 28.3 µM; in the assay on U251 CNS, more than 62.6 µM; with COLO 205 colon, 5.07 µM; with SK-MEL-2 melanoma, 5.73 µM. Further, the TGI in the assay on MDA-N was more than 30.2 µM; with HCT-15 colon, 6.18 µM; in the assay on UO-31 renal, 5.21 µM.

`CN(C)c1cccc2c(S(=O)(=O)NCCN)cccc12`: the TGI in the assay on HCC-2998 colon, with SW-620 colon, in the assay with OVCAR-5 ovarian, with U251 CNS, in the assay on COLO 205 colon and with SK-MEL-2 melanoma was more than 100 µM throughout. The TGI in the assay with MDA-N, in the assay on HCT-15 colon and with UO-31 renal was more than 100 µM in each case.

As for `CC(=O)c1c(-c2ccc(Cl)cc2)c(C#N)c(=S)n(C2OC(CO)C(O)C(O)C2O)c1C` (stereo not given), the TGI in the assay with HCC-2998 colon was more than 100 µM; in the assay with OVCAR-5 ovarian, more than 100 µM; in the assay on U251 CNS, more than 100 µM; with COLO 205 colon, 95.1 µM; with SK-MEL-2 melanoma, 84.5 µM; in the assay on MDA-N, 86.8 µM. In addition, the TGI is more than 100 µM in the assay with HCT-15 colon and 6.92 µM in the assay on UO-31 renal.

As to `O=C(Nc1cccc2ccccc12)c1cc2ccccc2oc1=O`, the TGI in the assay with HCC-2998 colon, in the assay with SW-620 colon, in the assay on OVCAR-5 ovarian, in the assay with U251 CNS, in the assay with COLO 205 colon and in the assay on SK-MEL-2 melanoma was more than 100 µM in each case. The TGI in the assay with MDA-N, in the assay on HCT-15 colon and in the assay with RPMI-8226 leukemia was more than 100 µM throughout.

Take `CCc1c(O)nc(Nc2nc3ccccc3[nH]2)[nH]c1=O`: the TGI in the assay on HCC-2998 colon, in the assay with SW-620 colon, with OVCAR-5 ovarian, in the assay on U251 CNS, in the assay with COLO 205 colon and in the assay on SK-MEL-2 melanoma was more than 100 µM each time. The TGI in the assay on MDA-N, in the assay on HCT-15 colon and in the assay on UO-31 renal was more than 100 µM each time.

Turning to `C[n+]1c2ccccc2n2c3ccccc3c(NCCCn3ccnc3)c(C#N)c21`, the TGI in the assay with HCC-2998 colon was 3.1 µM; in the assay on OVCAR-5 ovarian, 18.7 µM; in the assay with U251 CNS, more than 33 µM; in the assay with COLO 205 colon it was 4.4 µM; in the assay on SK-MEL-2 melanoma it was 4.71 µM; in the assay on MDA-N, 9.82 µM. For the same molecule, the values for the TGI in the assay on HCT-15 colon and in the assay with UO-31 renal were 12 µM and 42.6 µM, respectively.

For the molecule `COC(=O)CCC(C)[C@H]1CCC2C3CC[C@@H]4CC5(CC[C@]4(C)C3C[C@H](OC(C)=O)[C@@]21C)OOC1(CCCCC1)OO5` (stereo not given in full), the TGI in the assay on HCC-2998 colon is 9.2 µM; in the assay with OVCAR-5 ovarian it was more than 100 µM; with U251 CNS, more than 100 µM; in the assay with COLO 205 colon it was more than 100 µM; in the assay with SK-MEL-2 melanoma it was 52.2 µM; in the assay with MDA-N, 35 µM. Besides, the TGI in the assay on HCT-15 colon was more than 100 µM; in the assay with UO-31 renal, 9.04 µM; in the assay on RPMI-8226 leukemia it was 10.8 µM.

As to `CC(=O)OC12c3ccccc3C(c3ccccc31)C1C(=O)N(N=C(C)C)C(=O)C12` (stereo not given), the TGI in the assay on HCC-2998 colon, with SW-620 colon, in the assay with OVCAR-5 ovarian, in the assay with U251 CNS, with COLO 205 colon and with MDA-N was more than 100 µM throughout. In addition, the TGI in the assay with HCT-15 colon, with UO-31 renal and with RPMI-8226 leukemia was more than 100 µM in each case.

Consider `CCCCCCCCCCCC1=C(O)C(=O)C(CC2=C(O)C(=O)C(CCCCCCCCCCC)=C(O)C2=O)=C(O)C1=O`, for which the TGI in the assay on HCC-2998 colon, in the assay on SW-620 colon, in the assay with OVCAR-5 ovarian, in the assay on U251 CNS, in the assay with COLO 205 colon and in the assay with SK-MEL-2 melanoma was more than 100 µM each time. The TGI with MDA-N, in the assay on HCT-15 colon and in the assay with UO-31 renal was more than 100 µM each time.

Regarding `Cn1c2c(c3c(=O)[nH]ncc31)Cc1ccccc1-2`, the TGI is 91.2 µM in the assay on SW-620 colon; more than 100 µM in the assay with OVCAR-5 ovarian; 85.8 µM in the assay on U251 CNS; 54.3 µM with COLO 205 colon; 41.8 µM with SK-MEL-2 melanoma; 34.8 µM with MDA-N. Also, the TGI with HCT-15 colon was more than 100 µM; in the assay with UO-31 renal, 45.1 µM; in the assay with RPMI-8226 leukemia it was 69 µM.

With `CC1=NC(=N)N=C(C)C1N=Nc1ccc2nc(C)[nH]c2c1` (stereo not given), the TGI in the assay on HCC-2998 colon, in the assay on SW-620 colon, with OVCAR-5 ovarian, in the assay on U251 CNS, in the assay on COLO 205 colon and in the assay on SK-MEL-2 melanoma was more than 100 µM in each case. For the same molecule, the TGI in the assay on MDA-N, with HCT-15 colon and with RPMI-8226 leukemia was more than 100 µM in each case.

Take `COC(=O)C(Cc1ccccc1)NC(=O)C(CNC(=O)OCc1ccccc1)C(=O)OCc1ccccc1` (stereo not given): the TGI in the assay on HCC-2998 colon, in the assay on OVCAR-5 ovarian, with U251 CNS, with COLO 205 colon, with SK-MEL-2 melanoma and in the assay with MDA-N was more than 100 µM throughout. The TGI with HCT-15 colon, with UO-31 renal and in the assay on RPMI-8226 leukemia was more than 100 µM throughout.
